In assay [1] the test system is Streptococcus pneumoniae Group A. The experiment in a line: MIC against Streptococcus pneumoniae Group A. Format: cell-based. The conditions noted are these: initial measurement, Todd Hewitt broth. Here is the method: (§1) Susceptibilities to the compounds were determined using the National Committee for Clinical Laboratory Standards (NCCLS) M7-A6 broth microdilution method. Cation-adjusted Mueller-Hinton broth (Ca^2+, 25 μg/mL; Mg^2+, 12.5 μg/mL) microdilution panels were prepared to contain antimicrobial doubling dilution concentrations of an appropriate range. DMSO (dimethylsulfoxide) controls were incorporated into the panel to mimic the quantity of DMSO used in dissolving some of the compounds at the higher concentrations. Each final panel well volume was 100 μL with a bacterial inoculum of 5×10^5 CFU (colony forming units)/mL of the relevant bacterium. Panels were read following 16 to 20 h of incubation at 35 degrees Celsius in ambient air. The MIC (minimum inhibitory concentration) was defined as the lowest concentration of antimicrobial inhibiting visible growth.
Generally following the procedure of Example 9, but using Todd Hewitt broth (beef heart digest) rather than Mueller-Hinton broth, MICs were initially measured against Streptococcus pneumoniae Group A for compounds of the present invention as follows: […]

In the next assay the test system is E. coli D22. The experiment in a line: MIC, NCCLS M7-A6 broth microdilution, E. coli D22. The class given is cell-based. Conditions: 35 degrees Celsius; for MIC: Escherichia coli, D22, 16 to 20 h; for MIC E coli D22: 16 to 20 h. Here is the method: as §1
Assay [2] relates to Methicillin-Resistant Staph. aureus (MRSA). The experiment in a line: MIC, NCCLS M7-A6 broth microdilution, MRSA. Format: cell-based. Conditions: 16 to 20 h, 35 degrees Celsius; for MIC: Staphylococcus aureus, MRSA. Here is the method: as §1
For orientation: Dilution methods test growth across graded concentrations, often in twofold steps.

A further assay addresses AcpS enzyme (Escherichia coli, UniProt P24224). The experiment in a line: Measurement of AcpS inhibition ([3H]acetyl-CoA incorporation into apo-ACP). Format: biochemical. The conditions noted are these: % activity vs blank-subtracted counts; for activity at 50 µM / % AcpS activity at 50 uM: test compound 50 uM; for remaining activity at 500 µM / % AcpS activity @ 500 uM: test compound 500 uM. As to the method: [^3H]Acetyl-CoA was mixed as 1 volume of Perkin Elmer NET290 radiolabeled stock (e.g. 0.1 mCi/ml, 3.7 Ci/mmol in Na-acetate, pH 4.5-5.0=27 μM) with 1.2 volumes of 1 mM unlabelled acetyl-CoA (Sigma). Trichloroacetic acid was prepared as a 10% w/v solution. Bovine serum albumin was prepared as a 25 mg/ml solution in water. DTT was prepared as a 50 mM solution in water.
• 1. A standard reaction contained the following in a total volume of 10 μl:
• 2. Tubes were incubated at RT. [^3H]acetyl-CoA was added last to start the reaction. To stop the reaction, 2 μl was removed to a 1.5-ml microfuge tube containing 800 μl cold 10% TCA. Up to four time points were collected for each reaction, e.g. at 5 min, 10 min, 30 min, and 60 min. • 3. 20 μl of 25 mg/ml BSA was added to each tube, mixed and incubated on ice for 10 min, then centrifuged at 12,000 g for 5 min to form a pellet. Supernatant was removed using P1000. • 4. Each pellet was washed twice with 800 μl of cold 10% TCA each time, then centrifuged at 12,000 g for 5 min after each wash. The supernatant was discarded. Each pellet was resuspended in 50 μl of formic acid. The suspension was transferred to a scintillation vial and radioactivity was measured in 2 ml of liquid scintillation cocktail.
The random (stochastic) error in scintillation counting is proportional to the square root of the counts (not dpm) accumulated in the counting period; i.e. 10% for 100, 3.3% for 1,000, 1% for 10,000, etc. Provided radioactive counts (dpm) are in the thousands, the assay provides useful data. Results are reported in terms of % activity with respect to the blank-subtracted counts for working substrate. A % activity of less than about 40% is indicative of AcpS enzyme inhibition by the test compound at that concentration.

Structures are written as SMILES. In brackets after ≈: the same amount, converted by molar mass. Bounds are passed on as bounds.

The MIC is the lowest concentration found to suppress growth. Read a high MIC as weaker potency. As usually defined, the remaining activity is the signal under treatment as a percentage of the control signal.

Sequence of AcpS enzyme (P24224 whole entry): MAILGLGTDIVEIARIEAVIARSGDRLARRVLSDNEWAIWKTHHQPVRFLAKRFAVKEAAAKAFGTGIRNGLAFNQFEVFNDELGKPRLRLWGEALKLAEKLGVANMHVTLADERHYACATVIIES

Turning to `Cc1c(-c2nnn[nH]2)sc(-c2ccc(Cl)cc2C(C)C)c1-c1ccc(Cl)cc1C(C)C` [DNM0631, 5-(4,5-Bis(4-chloro-2-isopropylphenyl)-3-methylthiophen-2-yl)-1H-tetrazole], the MIC in assay [1] was < 0.25 µM.
Turning to `c1ccc2c(c1)oc1c(-c3cc(-c4nnn[nH]4)sc3-c3cccc4c3oc3ccccc34)cccc12` [DNM0542, 5-(4,5-Bis(dibenzo[b,d]furan-4-yl)thiophen-2-yl)-1H-tetrazole], the MIC in the assay with E. coli D22 was > 125 µM. The compound also returned an MIC in assay [2] of 2 µM (≈ 0.969 µg/mL). At AcpS enzyme, this compound had an activity at 50 µM of 9.58% and a remaining activity at 500 µM of 0.7%.
On the same counts, the results for `c1ccc(-c2cc(-c3nnn[nH]3)sc2-c2ccccc2-c2ccsc2)c(-c2ccsc2)c1` [DNM0559, 5-(4,5-Bis(2-(thiophen-3-yl)phenyl)thiophen-2-yl)-1H-tetrazole] are > 125 µM, 2 µM (≈ 0.937 µg/mL), 7.01% and 0.5%.
On to `CC(C)c1ccccc1-c1cc(-c2nn[nH]n2)cc(-c2ccccc2C(C)C)c1` [DNM0532], for which the “MIC E coli D22” value in the assay on E. coli D22 was >125 µM. Also, in assay [2], the “MIC MRSA” value came to 60 µM (≈ 23 µg/mL). At AcpS enzyme, the “% AcpS activity at 50 uM” value stood at 30.66% and the “% AcpS activity @ 500 uM” value stood at 0.22%.
On to `Cc1c(-c2nnn[nH]2)sc(-c2ccc(C)c3ccccc23)c1-c1ccc(C)c2ccccc12` [DNM0620, 5-(4,5-Bis(4-methylnaphthalen-1-yl)-3-methylthiophen-2-yl)-1H-tetrazole], for which, in assay [1], the minimal inhibitory concentration (MIC) was < 0.25 µM.
In the case of `Cc1ccc(-c2ccc(-c3ccc(C)c4ccccc34)c(-c3nnn[nH]3)c2)c2ccccc12` [DNM0446, 5-(2,5-Bis(4-methylnaphthalen-1-yl)phenyl)-1H-tetrazole], the minimum inhibitory concentration (MIC) against E. coli D22 was > 125 µM; in assay [2], 4 µM (≈ 1.71 µg/mL). For the same compound, the remaining activity at 500 µM on AcpS enzyme is 25.4%.
`c1ccc(-c2cc(-c3nnn[nH]3)sc2-c2ccccc2)cc1` [DNM0535]: in the assay with E. coli D22, the “MIC E coli D22” value was >125 µM. The “MIC MRSA” value in assay [2] is 125 µM (≈ 38 µg/mL). Moreover, at AcpS enzyme, the “% AcpS activity at 50 uM” value amounted to 92.62% and the “% AcpS activity @ 500 uM” value amounted to 3.48%.
Regarding `Cc1ccccc1-c1cc(-c2nnn[nH]2)sc1-c1ccccc1C` [DNM0531, 5-(4,5-Bis(2-methylphenyl)thiophen-2-yl)-1H-tetrazole], in the assay on E. coli D22, the minimum inhibitory concentration (MIC) was > 125 µM. This compound also returned an MIC in assay [2] of 60 µM (≈ 19.9 µg/mL). In addition, at AcpS enzyme, the activity at 50 µM is 96.8% and the remaining activity at 500 µM turned out to be 4.38%.
`Cc1cc(Cl)ccc1-c1cc(-c2nn[nH]n2)cc(-c2ccc(Cl)cc2C)c1` [DNM0457]: the “MIC E coli D22” value against E. coli D22 is 60 µM (≈ 23.7 µg/mL). The “MIC MRSA” value in assay [2] stood at 8 µM (≈ 3.16 µg/mL). Also, at AcpS enzyme, the “% AcpS activity at 50 uM” value turned out to be 1.56% and the “% AcpS activity @ 500 uM” value is recorded as 0%.
With `c1ccc(-c2ccccc2-c2cc(-c3nnn[nH]3)sc2-c2ccccc2-c2ccccc2)cc1` [DNM0489, 5-(4,5-Di(biphenyl-2-yl)thiophen-2-yl)-1H-tetrazole], the MIC in the assay on E. coli D22 was > 125 µM; in assay [2] it was 2 µM (≈ 0.913 µg/mL). Moreover, at AcpS enzyme, the activity at 50 µM was found to be 17.9%. At AcpS enzyme, this compound came in with a remaining activity at 500 µM of 0%.
Turning to `Cc1ccc(-c2cc(-c3nnn[nH]3)sc2-c2ccc(C)c3ccccc23)c2ccccc12` [DNM0486, 5-(4,5-Bis(4-methylnaphthalen-1-yl)thiophen-2-yl)-1H-tetrazole], the MIC in the assay with E. coli D22 was > 125 µM. The compound further had an MIC in assay [2] of 2 µM (≈ 0.865 µg/mL). At AcpS enzyme, this compound came in with an activity at 50 µM of 0.82% and a remaining activity at 500 µM of 0.16%.
As for `c1ccc(-c2ccccc2-c2cc(-c3nn[nH]n3)cc(-c3ccccc3-c3ccccc3)c2)cc1` [DNM0464], the “MIC E coli D22” value against E. coli D22 was >125 µM. Besides, in assay [2], the “MIC MRSA” value was found to be 1 µM (≈ 0.451 µg/mL). Besides, at AcpS enzyme, the “% AcpS activity at 50 uM” value came to 9.03% and the “% AcpS activity @ 500 uM” value came out at 0.28%.
With `Cc1ccc(-c2cc(-c3ccc(Cl)cc3)cc(-c3nnn[nH]3)c2)c2ccccc12` [DNM0480, 5-(4′-Chloro-5-(4-methylnaphthalen-1-yl)biphenyl-3-yl)-1H-tetrazole], the MIC with E. coli D22 stood at 125 µM (≈ 49.6 µg/mL); in assay [2], 4 µM (≈ 1.59 µg/mL). Further, the activity at 50 µM at AcpS enzyme is 7.35%. At AcpS enzyme, this compound had a remaining activity at 500 µM of 2.04%.
On the same counts, the results for `FC(F)(F)Oc1ccccc1-c1cc(-c2nnn[nH]2)sc1-c1ccccc1OC(F)(F)F` [DNM0550, 5-(4,5-Bis(2-(trifluoromethoxy)phenyl)thiophen-2-yl)-1H-tetrazole] are > 125 µM, 30 µM (≈ 14.2 µg/mL), 47.8% and 0.39%.
In the case of `c1ccc(-c2cc(-c3nnn[nH]3)sc2-c2ccccc2-c2ccoc2)c(-c2ccoc2)c1` [DNM0560, 5-(4,5-Bis(2-(furan-3-yl)phenyl)thiophen-2-yl)-1H-tetrazole], in the assay with E. coli D22, the MIC was > 125 µM. In addition, the MIC in assay [2] came to 15 µM (≈ 6.55 µg/mL). On AcpS enzyme, this compound returned an activity at 50 µM of 63.6% and a remaining activity at 500 µM of 0.06%.
Regarding `Cc1ccc(-c2cc(-c3nn[nH]n3)cc(-c3cc(Cl)ccc3N(C)C)c2)c2ccccc12` [DNM0514], the “MIC E coli D22” value in the assay on E. coli D22 was >125 µM. For the same compound, in assay [2], the “MIC MRSA” value worked out at 4 µM (≈ 1.76 µg/mL). Further, on AcpS enzyme, the “% AcpS activity at 50 uM” value is 5.73% and the “% AcpS activity @ 500 uM” value worked out at 0.14%.
In the case of `Clc1ccc(-c2cc(-c3nn[nH]n3)cc(-c3ccccc3-c3ccccc3)c2)cc1` [DNM0479], in the assay with E. coli D22, the “MIC E coli D22” value was >125 µM. Besides, in assay [2], the “MIC MRSA” value came out at 2 µM (≈ 0.818 µg/mL). For the same compound, at AcpS enzyme, the “% AcpS activity at 50 uM” value came to 12.79% and the “% AcpS activity @ 500 uM” value was 0.1%.
Take `CC(C)(C)c1ccc(-c2cc(-c3nnn[nH]3)sc2-c2ccc(C(C)(C)C)cc2)cc1` [DNM0546, 5-(4,5-Bis(4-tert-butylphenyl)thiophen-2-yl)-1H-tetrazole]: the MIC against E. coli D22 is > 125 µM. In assay [2], it took 4 µM (≈ 1.67 µg/mL) to inhibit growth (MIC). At AcpS enzyme, this compound yielded an activity at 50 µM of 37.2% and a remaining activity at 500 µM of 5.16%.
`c1ccc(Oc2ccccc2-c2cc(-c3nnn[nH]3)sc2-c2ccccc2Oc2ccccc2)cc1` [DNM0536, 5-(4,5-Bis(2-phenoxyphenyl)thiophen-2-yl)-1H-tetrazole] returned an MIC in the assay on E. coli D22 of 125 µM (≈ 61.1 µg/mL). Also, in assay [2], inhibition of growth (MIC) required 8 µM (≈ 3.91 µg/mL). At AcpS enzyme, this compound registered an activity at 50 µM of 8.25% and a remaining activity at 500 µM of 0.2%.
With `Brc1ccccc1-c1sc(-c2nnn[nH]2)cc1-c1ccccc1C1CCCC1` [DNM0571], the “MIC E coli D22” value against E. coli D22 is >125 µM. Moreover, the “MIC MRSA” value in assay [2] came out at 8 µM (≈ 3.61 µg/mL). Moreover, at AcpS enzyme, the “% AcpS activity at 50 uM” value came to 8.19% and the “% AcpS activity @ 500 uM” value is listed as 0.11%.
Consider `COc1ccc(-c2cc(-c3nnn[nH]3)sc2-c2ccc(OC)c(Cl)c2)cc1Cl` [DNM0565, 5-(4,5-Bis(3-chloro-4-methoxyphenyl)thiophen-2-yl)-1H-tetrazole], for which, in the assay with E. coli D22, the MIC is > 125 µM. This compound also had an MIC in assay [2] of 15 µM (≈ 6.5 µg/mL). On AcpS enzyme, the activity at 50 µM stood at 22.9% and the remaining activity at 500 µM was 0.11%.
On the same counts, the results for `Cc1ccc(-c2cc(-c3nn[nH]n3)cc(-c3ccc(C)c4ccccc34)c2)c2ccccc12` [DNM0461, 5-(3,5-Bis(4-methylnaphthalen-1-yl)phenyl)-2H-tetrazole] are > 125 µM, 1 µM (≈ 0.427 µg/mL), 13.4% and 0.85%.
`Cc1ccc(-c2cc(-c3nn[nH]n3)cc(-c3ccc(C)cc3-c3cccc(Cl)c3)c2)c(-c2cccc(Cl)c2)c1` [DNM0520]: the “MIC E coli D22” value in the assay with E. coli D22 was >125 µM. The “MIC MRSA” value in assay [2] was 2 µM (≈ 1.09 µg/mL). The “% AcpS activity @ 500 uM” value on AcpS enzyme stood at 20.86%.

For the origin of these results see patent US9012655B2, “Antimicrobial/adjuvant compounds and methods” (Denouamed, Inc., priority 2011, dated 2015).
